Results: patent US4228162A (priority 1979, dated 1980)
Converted amounts (≈) assume the structure as drawn. Like-named read-outs stand apart in the source and are kept apart here.

Experiments:
[1] = Description: The samples were prepared using USP grade aspirin, which was dried at 110° before use. […] Spectrum b was taken after the sample (containing 10% water) was stored at 70° C. for 96 hours.
[2] = cited from earlier work
[3] = Arrhenius prediction of aspirin degradation and shelf life; assay type: physicochemical; conditions: 1.00 M aspirin in dimethyl isosorbide
Description: The rate constants determined at various temperatures were used to predict the aspirin degradation at room (25° C.) and refrigeration (5° C.) temperatures using the Arrhenius equation:
log k=log A-Ea /2.303RT (3)
where k is the rate constant at temperature T,A, a constant, R, the gas constant, and Ea, the activation energy of the reaction. A plot of log k versus 1/T should yield a straight line with the slope equal to -Ea /2.303R. For the same reaction, Ea is a constant. From the plot, the rate constants at 25° and 5° can also be calculated. These constants can then be used for the prediction of the shelf life (time for 10% degradation) of the aspirin formulations at room and refrigeration temperatures.
From these values, the shelf-life (time for 10% degradation) of formulation A were predicted to be 230 days at 25° C., and 62.5 months at 5° C.

gastrointestinal tract = conditions: cited from earlier work
[4] = assay type: physicochemical; conditions: dimethyl isosorbide versus propylene glycol and polyethylene glycol-400
From the text: Ideally, an anhydrous composition is used to prevent hydrolysis.

[5] = Hydrolysis (stability) studies of aspirin formulations in dimethyl isosorbide; assay type: physicochemical
Description: No attempt of drying of the drug or the solvent was made prior to the experiment. 25 ml of each of the six formulations were placed in a screw capped bottle which was then kept in a temperature controlled water bath set at a designated temperature. Samples of each of the formulations were pipetted out at selected time intervals, and were immediately analyzed for salicylic acid content. The analysis of salicylic acid was carried out using the fluorometric method previously described. The samples were diluted 1000 times in a volumetric flask, a few μl's of the diluted samples were then transferred into a fluorescence cuvette containing 2 ml of pH 7 buffer for the fluorescence measurement. The hydrolysis studies were carried out at 40, 45, 50, 60 and 70° C. and at room temperature.
The rate constant of aspirin hydrolysis was determined according to the following equation: […]
where Co is the initial concentration of aspirin, C, the concentration of aspirin at time t, and k, the rate constant. For practical purposes, the above equation may be converted to […]

[6] = cited from earlier work; remark: listed apart in the source
[7] = Solubility of aspirin in propylene glycol, polyethylene glycol-400 and dimethyl isosorbide; assay type: physicochemical; conditions: organic solvent or mixture
Description: The bottle was constantly shaken at room temperature for 24 hours. The solution was then filtered for analysis. The determination of aspirin contents in the solubility samples was carried out using a fluorometric technique, in which the aspirin was completely hydrolyzed into salicylic acid, and the fluorescence of salicylic acid was then measured. The concentration of salicylic acid in the samples was determined based on a fluorescence calibration curve of known concentrations of salicylic acid in the range of 5×10^-7 M to 5×10^-6 M. The concentration of salicylic acid so determined was then converted to the concentration of aspirin. The solubility of aspirin in various solvents is expressed in mg/ml. The samples were treated as follows: […] After 30 minutes, when the hydrolysis was complete, 0.5 ml of a 1 N HCl was added to the flask to neutralize the excess sodium hydroxide. The solution was then diluted with a pH 7 phosphate buffer to 25 ml. For fluorescence measurement, 1, 2, 3, and 4 μl of the diluted solution were transferred into different fluorescence cuvettes containing 2 ml of pH 7 buffer. The fluorescence measured from these solutions was then used to determine the aspirin content in the solvents.

CC(=O)Oc1ccccc1C(=O)O [Aspirin, acetylsalicylic acid]
aspirin degradation by nmr ([1]; 1 M aspirin in dimethyl isosorbide with 10% (v/v) water, 70° C., 96 hours): partially hydrolyzed into salicylic acid and acetic acid | nmr spectral change ([1]; 1 M aspirin in dimethyl isosorbide, no water, heated at 70° for 24 hours): no detectable change was found in the nmr spectrum | Time for 10% Degradation ([2]; 5° C., 0.36 M aspirin in polyethylene glycol-400): 2.90 mos. | Time for 10% Degradation ([2]; 5° C., 0.36 M aspirin in propylene glycol): 55.8 mos. | Time for 10% Degradation ([2]; 25° C., 0.36 M aspirin in polyethylene glycol-400): 18.8 days | Time for 10% Degradation ([2]; 25° C., 0.36 M aspirin in propylene glycol): 151.2 days | Time for 10% Degradation ([3]; 5° C.): 62.5 mos. | Time for 10% Degradation ([3]; 25° C.): 230 days | gastrointestinal bleeding (gastrointestinal tract; aspirin ingestion, users and patients with gastrointestinal lesions): severe gastrointestinal bleeding | occult bleeding (gastrointestinal tract; orally in a liquid form or intravenously): produces no occult bleeding | aspirin stability compared between solvents [4]: more stable in dimethyl isosorbide than in the other solvents | cause of aspirin degradation (nmr) [5]: hydrolysis is the only cause for aspirin degradation in dimethyl isosorbide | kinetic order of aspirin hydrolysis ([5]; 50° C., FIG. 3): follows second order kinetics | mode of decomposition in polyhydric alcohols (nmr) ([6]; apparently anhydrous polyhydric alcohols): occurs by transesterification of the acid with the polyhydric alcohol as well as by hydrolysis due to the presence of water | hydrolysis kinetics ([6]; aqueous, Edward): follows first order kinetics and is subject to acid and base catalysis | trans-esterification ([6]; polyethylene glycol-400, prolonged storage, Jun et al): undergoes trans-esterification with polyethylene glycol-400 to form salicylic acid and acetylated polyethylene glycol | solubility at 24 h ([7]; dimethyl isosorbide): 280 mg/mL (≈ 1550 mM) | solubility at 24 h ([7]; in polyethylene glycol-400, room temperature, 24 hours): 254 mg/mL (≈ 1410 mM) | solubility at 24 h ([7]; in propylene glycol, room temperature, 24 hours): 160 mg/mL (≈ 888 mM)
